Data on eleven compounds can be found in patent publication EP4803525A1 (Hefei Institute of Pharmaceutical Industry Co., Ltd., priority 2023, dated 2025).

Structures are written as SMILES. pIC50: −log10 of the molar value.

The first experiment deals with T1, hERG potassium channel (Homo sapiens, UniProt Q12809).
T1 construct: host or cells: HEK-293
T1 sequence (Q12809 whole entry): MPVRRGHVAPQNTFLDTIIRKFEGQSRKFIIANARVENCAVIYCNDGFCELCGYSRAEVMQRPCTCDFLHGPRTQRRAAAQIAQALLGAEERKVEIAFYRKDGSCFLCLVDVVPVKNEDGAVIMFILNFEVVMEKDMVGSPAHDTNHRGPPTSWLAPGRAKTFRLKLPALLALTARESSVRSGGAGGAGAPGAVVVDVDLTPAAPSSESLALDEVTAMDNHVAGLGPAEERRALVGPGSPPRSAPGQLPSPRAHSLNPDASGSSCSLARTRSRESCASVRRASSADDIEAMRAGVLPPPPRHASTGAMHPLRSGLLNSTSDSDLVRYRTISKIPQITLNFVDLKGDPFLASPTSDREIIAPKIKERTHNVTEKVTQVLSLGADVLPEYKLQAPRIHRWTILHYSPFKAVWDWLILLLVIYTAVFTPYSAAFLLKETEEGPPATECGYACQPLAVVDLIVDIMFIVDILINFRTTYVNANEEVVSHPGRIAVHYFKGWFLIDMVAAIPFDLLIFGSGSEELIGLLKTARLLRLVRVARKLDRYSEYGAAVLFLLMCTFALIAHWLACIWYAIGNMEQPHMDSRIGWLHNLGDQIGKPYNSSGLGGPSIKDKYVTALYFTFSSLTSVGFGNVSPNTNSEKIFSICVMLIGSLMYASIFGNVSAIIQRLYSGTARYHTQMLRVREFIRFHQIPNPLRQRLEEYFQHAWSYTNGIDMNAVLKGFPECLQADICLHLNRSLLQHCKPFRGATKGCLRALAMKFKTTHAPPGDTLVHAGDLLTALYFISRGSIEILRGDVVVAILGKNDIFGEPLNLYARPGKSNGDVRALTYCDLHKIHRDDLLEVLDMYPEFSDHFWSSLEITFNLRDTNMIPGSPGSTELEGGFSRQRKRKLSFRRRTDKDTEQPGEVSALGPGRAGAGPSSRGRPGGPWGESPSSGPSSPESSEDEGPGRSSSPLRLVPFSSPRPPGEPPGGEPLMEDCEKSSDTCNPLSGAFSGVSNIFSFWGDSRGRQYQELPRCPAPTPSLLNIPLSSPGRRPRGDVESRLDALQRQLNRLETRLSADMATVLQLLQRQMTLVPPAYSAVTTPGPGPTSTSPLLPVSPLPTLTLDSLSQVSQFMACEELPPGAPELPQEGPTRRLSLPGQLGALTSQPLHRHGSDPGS
The experiment in a line: hERG whole-cell patch-clamp test in HEK-293 cells. The class given is cell-based.
Details: not given
The protocol: HEK-293 cell line stably expressing hERG potassium channels (purchased from Creacell, catalog number: A-0320) was used. HEK293 cell lines were cultured in DMEM medium containing 10% fetal bovine serum and 0.8 mg/mL G418 at a temperature of 37°C and a carbon dioxide concentration of 5%. For patch-clamp assays, cells were separated using TrypLE™ Express before the assay. 4 × 10^3 cells were seeded onto coverslips and cultured in 24-well plates (final volume: 500 µL). The assays were performed 18 hours later.
Whole-cell patch-clamp test: after whole-cell sealing is achieved, the cell membrane voltage is clamped to -80mV. […] Data was collected every 10 seconds to observe the effect of the drug on hERG tail current. A -50 mV stimulus of 0.5 s was used as the leakage current detection. Experimental data were collected by the EPC-10 amplifier and stored in the software. Once the hERG current recorded in whole cells stabilized, drug administration began. Each drug concentration was administered for 5 minutes (or the current stabilized) before the next concentration was measured.
For `CC(C)(C)CNC(=O)Cc1ccc(Nc2nc(N3CCC(c4ncc(Cl)cn4)CC3)nc3c2S(=O)(=O)CCC3)cc1F` [Example 24, 2-(4-((2-(4-(5-chloropyrimidin-2-yl)piperidin-1-yl)-5,5-dioxo-7,8-dihydro-6H -thiapyrano[3,2-d]pyrimidin-4-yl)amino)-2-fluorophenyl) -N-neopentylacetamide], the pIC50 is less than 4.52.

Still in this experiment, the particulars now being: HEK-293 cells stably expressing hERG, whole-cell patch clamp, 0.03-30 µM; read-out: h ERG IC50.
Turning to `[O-][S+]1CCc2nc(N3CC=C(c4ncc(Cl)cn4)CC3)nc(NC3(CO)CCC3)c21` (stereo not shown) [Example 1, 2-(4-(5-chloropyrimidin-2-yl)-3,6-dihydropyridin-1(2H)-yl)-4-((1-(hydroxymethyl)cyclobutyl)amino)-6,7-dihydrothiopheno[3,2-d]pyrimidine-5-oxide], the negative-log IC50 (pIC50) was 4.84.
Same read-out and setting: as for `O=C(c1ncc(Cl)cn1)N1CCN(c2nc3c(c(NC4(CO)CCC4)n2)[S+]([O-])CC3)CC1` (stereo not shown) [Example 3, (5-chloropyrimidin-2-yl)(4-(4-((1-(hydroxymethyl)cyclobutyl)amino)-5-oxo-6,7-dihydrothieno[3,2-d]pyrimidin-2-yl)piperazin-1-yl)methanone], the figure is less than 4.52; as for `[O-][S+]1CCc2nc(N3CC4(CN(c5ncc(Cl)cn5)C4)C3)nc(NC3(CO)CCC3)c21` (stereo not shown) [Example 8], less than 4.52.
Consider `O=C(O)Cc1ccc(Nc2nc(N3CC=C(c4ncc(Cl)cn4)CC3)nc3c2[S+]([O-])CC3)cc1F` (stereo not shown) [Example 14, 2-(4-((2-(4-(5-chloropyrimidin-2-yl)-3,6-dihydropyridin-1(2H)-yl)-5-oxo-6,7-dihydrothiopheno[3,2-d]pyrimidin-4-yl)amino)-2-fluorophenyl)acetic acid], for which the negative-log IC50 (pIC50) is less than 4.52.
Take `O=S1(=O)CCc2nc(N3CCC(c4ncc(Cl)cn4)CC3)nc(NC3(CO)CCC3)c21` [Example 4]: the pIC50 is less than 4.52.
For the compound `O=C(O)C1(c2ccc(Nc3nc(N4CC=C(c5ncc(Cl)cn5)CC4)nc4c3S(=O)(=O)CCC4)cc2F)CCC1` [Example 26, 1-(4-((2-(4-(5-chloropyrimidin-2-yl)-3,6-dihydropyridin-1(2H)-yl)-5,5-dioxo-7,8-dihydro-6H -thiapyrano[3,2-d]pyrimidin-4-yl)amino)-2-fluorophenyl)cyclobutane-1-carboxylic acid], the negative logarithm of the IC50 (pIC50) was less than 4.52.

For a further experiment, the target named is T2, PDE4B2 (Homo sapiens, UniProt Q07343).
T2 construct: purchased BPS bioscience
T2 sequence (Q07343 1-564 isoform Q07343-2): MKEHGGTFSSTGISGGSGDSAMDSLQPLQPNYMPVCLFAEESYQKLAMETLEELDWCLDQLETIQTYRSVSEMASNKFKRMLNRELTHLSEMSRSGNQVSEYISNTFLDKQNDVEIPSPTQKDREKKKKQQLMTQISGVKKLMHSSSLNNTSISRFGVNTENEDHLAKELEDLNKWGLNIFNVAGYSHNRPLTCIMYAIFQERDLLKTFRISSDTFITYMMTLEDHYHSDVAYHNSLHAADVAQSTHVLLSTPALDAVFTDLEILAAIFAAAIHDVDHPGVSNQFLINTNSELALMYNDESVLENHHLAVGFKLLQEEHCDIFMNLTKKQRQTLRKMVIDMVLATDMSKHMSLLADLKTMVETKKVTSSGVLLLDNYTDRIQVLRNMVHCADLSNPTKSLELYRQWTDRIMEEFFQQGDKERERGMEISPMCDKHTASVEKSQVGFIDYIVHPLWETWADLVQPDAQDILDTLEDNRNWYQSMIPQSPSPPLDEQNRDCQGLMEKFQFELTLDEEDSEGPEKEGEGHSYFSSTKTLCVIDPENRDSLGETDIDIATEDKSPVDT
The experiment in a line: Inhibitory activity against PDE4B enzyme (AMP-Glo detection). The class given is biochemical.
Details: not given
On the procedure:
2.1 Compound preparation and treatment: all compounds were prepared into 50 mM stock solutions using dimethyl sulfoxide.
2.2 Preparation of working stock solution: a) the reference rolipram was serially diluted 3 times with dimethyl sulfoxide starting from 2 mmol, to a total of 10 concentrations. b) 2 mmol of the compound of the present invention was serially diluted three times with dimethyl sulfoxide (DMSO) to a total of 10 concentrations. c) A 200X positive control (2 mM rolipram) and a 200X vector control (100% dimethyl sulfoxide) were prepared. d) The compound plate was centrifuged at 1000 rpm for 1 minute.
• a) An Echo 550 was used to transfer 20 nL of compound dilution to each well of the detection plate. • b) The test plate was sealed and centrifuged at 1000 rpm for 1 minute. • c) 2X PDE4B2 was prepared in frozen PDE detection buffer. • d) 2 µL of 2X PDE4B2 was added to each well of the detection plate (prepared in step b). • e) The test plate was sealed and incubated for 10 minutes under RT conditions. • f) 2X Cyclic-3',5'-AMP was prepared in PDE detection buffer. • g) 2 µl of 2X Cyclic-3',5'-AMP (prepared in step f) was added to each well of the detection plate (prepared in step e) to initiate the reaction. Incubation was performed at room temperature for 60 minutes. • h) 4 µL of AMP-Glo reagent I was added. • i) 8 µL of AMP detection solution was added. Incubation was performed at room temperature for 60 minutes. • k) The RLU signal was read on the Envision 2105 reader.
Compound `O=C(O)Cc1ccc(Nc2nc(N3CC=C(c4ncc(Cl)cn4)CC3)nc3c2S(=O)(=O)CCC3)cc1F` [Example 18, 2-(4-((2-(4-(5-chloropyrimidin-2-yl)-3,6-dihydropyridin-1(2H)-yl)-5,5-dioxo-7,8-dihydro-6H -thiapyrano[3,2-d]pyrimidin-4-yl)amino)-2-fluorophenyl)acetic acid] had a pIC50 greater than 9.00.
In turn, `O=C(O)C1(c2ccc(Nc3nc(N4CCC(c5ncc(Cl)cn5)CC4)nc4c3S(=O)(=O)CCC4)cc2F)CCC1` [Example 25, 1-(4-((2-(4-(5-chloropyrimidin-2-yl)piperidin-1-yl)-5,5-dioxo-7,8-dihydro-6H -thiapyrano[3,2-d]pyrimidin-4-yl)amino)-2-fluorophenyl)cyclobutane-1-carboxylic acid] had a pIC50 of 7.70 to 9.00.
Still for that read-out and setting: as for `O=C(O)C1(c2ccc(Nc3nc(N4CCC(c5ncc(Cl)cn5)CC4)nc4c3S(=O)(=O)CCC4)cc2F)CC1` [Example 23, 1-(4-((2-(4-(5-chloropyrimidin-2-yl)piperidin-1-yl)-5,5-dioxo-7,8-dihydro-6H-thiapyrano[3,2-d]pyrimidin-4-yl)amino)-2-fluorophenyl)cyclopropane-1-carboxylic acid], the figure is 7.70 to 9.00; as for `[O-][S+]1CCc2nc(N3CC4(CN(c5ncc(Cl)cn5)C4)C3)nc(NC3(CO)CCC3)c21` (stereo not shown) [Example 8], 7.00 to 7.70; as for `O=S1(=O)CCc2nc(N3CCC(c4ncc(Cl)cn4)CC3)nc(NC3(CO)CCC3)c21` [Example 4], 7.00 to 7.70.
`O=C(O)Cc1ccc(Nc2nc(N3CCN(c4ncc(Cl)cn4)CC3)nc3c2S(=O)(=O)CCC3)cc1F` [Example 27, 2-(4-((2-(4-(5-chloropyrimidin-2-yl)piperazin-1-yl)-5,5-dioxo-7,8-dihydro-6H -thiapyrano[3,2-d]pyrimidin-4-yl)amino)-2-fluorophenyl)acetic acid] had a pIC50 of 7.70 to 9.00.
